According to patent US10874670B2, “Substituted fused heteroaromatic compounds as kinase inhibitors and the use thereof” (IMPACT THERAPEUTICS, INC., priority 2017, dated 2020):
pIC50: −log10 of the molar value.

Columns and labels:
ATM enzyme (human) = ATM enzyme (human) (Homo sapiens, UniProt Q13315); assay: ATM kinase assay (HTRF, GST-cMyc-p53 substrate); type: biochemical; details: 0.5 h, read-out: Inh (%) of ATM kinase; for inhibition at 1 µM: C 1 μm (final concentration of compound); for inhibition at 0.01 µM: C 0.01 μm (final concentration of compound); for inhibition at 0.1 µM: C 0.1 μm (final concentration of compound)
Chain of ATM enzyme (human) (Q13315 whole entry): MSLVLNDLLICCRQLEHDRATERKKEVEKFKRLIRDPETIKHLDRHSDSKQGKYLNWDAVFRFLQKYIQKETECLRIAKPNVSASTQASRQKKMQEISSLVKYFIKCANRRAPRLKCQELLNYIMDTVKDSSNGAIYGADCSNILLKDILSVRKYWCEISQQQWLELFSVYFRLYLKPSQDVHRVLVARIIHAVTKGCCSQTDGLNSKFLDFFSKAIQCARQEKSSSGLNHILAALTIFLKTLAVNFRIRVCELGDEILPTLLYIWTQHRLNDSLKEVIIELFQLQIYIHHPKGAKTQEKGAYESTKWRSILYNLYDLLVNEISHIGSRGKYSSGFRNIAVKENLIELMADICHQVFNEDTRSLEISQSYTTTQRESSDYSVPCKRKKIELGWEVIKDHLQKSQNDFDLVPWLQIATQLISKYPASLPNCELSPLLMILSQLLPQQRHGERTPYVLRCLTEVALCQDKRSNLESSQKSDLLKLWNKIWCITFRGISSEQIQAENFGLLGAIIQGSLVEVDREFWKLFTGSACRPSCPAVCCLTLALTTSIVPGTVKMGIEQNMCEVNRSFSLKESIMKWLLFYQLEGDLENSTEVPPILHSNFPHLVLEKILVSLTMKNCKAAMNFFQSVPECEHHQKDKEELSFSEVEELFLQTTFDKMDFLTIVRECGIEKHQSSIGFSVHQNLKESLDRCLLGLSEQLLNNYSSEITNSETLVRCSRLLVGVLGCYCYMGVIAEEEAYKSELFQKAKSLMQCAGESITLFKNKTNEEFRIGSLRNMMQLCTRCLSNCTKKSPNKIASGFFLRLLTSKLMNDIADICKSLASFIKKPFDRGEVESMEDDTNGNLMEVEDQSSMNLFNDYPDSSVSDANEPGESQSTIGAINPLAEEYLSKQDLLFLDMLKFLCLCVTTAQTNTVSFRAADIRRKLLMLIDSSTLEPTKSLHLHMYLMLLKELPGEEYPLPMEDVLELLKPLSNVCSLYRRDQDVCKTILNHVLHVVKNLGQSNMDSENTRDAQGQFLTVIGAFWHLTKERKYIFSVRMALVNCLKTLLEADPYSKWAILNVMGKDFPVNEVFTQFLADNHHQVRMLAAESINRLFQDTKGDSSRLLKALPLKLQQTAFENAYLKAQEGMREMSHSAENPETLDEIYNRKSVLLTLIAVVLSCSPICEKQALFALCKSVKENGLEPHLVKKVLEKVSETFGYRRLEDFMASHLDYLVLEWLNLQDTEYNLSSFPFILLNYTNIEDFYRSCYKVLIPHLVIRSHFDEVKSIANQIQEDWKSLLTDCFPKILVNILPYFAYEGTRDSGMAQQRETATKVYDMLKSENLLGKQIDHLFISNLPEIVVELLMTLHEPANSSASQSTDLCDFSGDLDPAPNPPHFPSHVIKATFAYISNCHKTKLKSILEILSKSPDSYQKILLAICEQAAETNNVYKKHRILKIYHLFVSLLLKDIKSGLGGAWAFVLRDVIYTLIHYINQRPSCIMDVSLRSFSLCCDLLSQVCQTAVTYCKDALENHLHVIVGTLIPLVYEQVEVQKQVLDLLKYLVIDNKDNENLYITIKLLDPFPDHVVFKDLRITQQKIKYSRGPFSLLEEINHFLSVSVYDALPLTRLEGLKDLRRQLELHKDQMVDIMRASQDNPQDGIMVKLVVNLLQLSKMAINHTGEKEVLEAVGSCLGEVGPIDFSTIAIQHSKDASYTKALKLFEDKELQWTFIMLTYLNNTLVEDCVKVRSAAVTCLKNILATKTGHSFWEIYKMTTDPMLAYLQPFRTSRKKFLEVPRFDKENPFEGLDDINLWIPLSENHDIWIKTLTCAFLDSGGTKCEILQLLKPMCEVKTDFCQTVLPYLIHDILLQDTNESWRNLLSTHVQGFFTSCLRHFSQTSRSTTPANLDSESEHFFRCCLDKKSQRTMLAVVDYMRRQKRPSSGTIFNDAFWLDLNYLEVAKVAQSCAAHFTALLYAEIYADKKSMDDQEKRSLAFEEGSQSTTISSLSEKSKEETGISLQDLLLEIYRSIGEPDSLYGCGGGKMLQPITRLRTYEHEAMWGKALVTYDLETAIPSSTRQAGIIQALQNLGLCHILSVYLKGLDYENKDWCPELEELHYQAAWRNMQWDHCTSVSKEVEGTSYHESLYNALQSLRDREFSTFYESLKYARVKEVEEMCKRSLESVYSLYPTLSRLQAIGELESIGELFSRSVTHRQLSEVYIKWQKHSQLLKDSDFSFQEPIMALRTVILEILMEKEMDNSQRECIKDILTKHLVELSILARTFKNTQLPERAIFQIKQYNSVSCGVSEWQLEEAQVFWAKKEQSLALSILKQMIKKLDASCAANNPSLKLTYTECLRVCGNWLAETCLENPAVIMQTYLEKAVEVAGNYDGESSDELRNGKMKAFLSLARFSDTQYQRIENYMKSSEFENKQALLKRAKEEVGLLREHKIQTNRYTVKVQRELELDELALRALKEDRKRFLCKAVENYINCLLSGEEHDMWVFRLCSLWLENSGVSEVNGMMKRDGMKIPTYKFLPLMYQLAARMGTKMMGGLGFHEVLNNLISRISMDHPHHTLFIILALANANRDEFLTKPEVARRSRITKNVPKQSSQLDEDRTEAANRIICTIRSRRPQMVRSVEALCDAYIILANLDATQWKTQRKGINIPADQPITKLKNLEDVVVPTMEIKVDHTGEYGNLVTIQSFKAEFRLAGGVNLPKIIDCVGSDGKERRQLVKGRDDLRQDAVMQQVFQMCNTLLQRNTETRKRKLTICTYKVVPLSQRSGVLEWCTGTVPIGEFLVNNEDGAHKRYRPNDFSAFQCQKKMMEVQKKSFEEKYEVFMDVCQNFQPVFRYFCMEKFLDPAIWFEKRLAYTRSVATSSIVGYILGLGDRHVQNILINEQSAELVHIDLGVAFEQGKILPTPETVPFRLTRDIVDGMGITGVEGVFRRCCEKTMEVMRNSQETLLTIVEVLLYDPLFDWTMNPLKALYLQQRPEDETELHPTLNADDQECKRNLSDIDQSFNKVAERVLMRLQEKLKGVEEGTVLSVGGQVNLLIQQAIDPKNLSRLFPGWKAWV
Procedure: In Vitro Inhibition of ATM by N,N-dimethyl-3-(4-(1-(tetrahydro-2H-pyran-4-yl)-[1,2,4]triazolo[4,3-a]quinoxalin-8-yl)phenoxy)propan-1-amine and its Analogues was Determined by ATM Kinase Assay
The reaction was initiated by the addition of a Mg/ATP mixture and incubation for 30 minutes at room temperature, the reaction was quenched by the addition of a stop solution containing EDTA. Finally, the detection buffer containing the d2-labeled anti-GST monoclonal antibody and the europium-labeled anti-phospho p53 (Ser15) antibody was added. The plate was then read in time resolved fluorescence mode and the homogeneous time resolved fluorescence (HTRF) signal was determined according to the equation: HTRF=10000×(Em665nm/Em620nm). Each compound sample was repeated in duplicate. The experiment negative control was all components except of the ATM enzyme and the positive control contained all components. All reactions were quenched by adding EDTA.
ATM kinase inhibition was detected by using the method described above. The curve equation for calculating IC50 value is as follows:
[formula] • wherein, C is the concentration of compound and D is the slope factor.

[1] = tested on: human colon cancer cell SW620; assay: MTT assay, growth of SW620 cells, compounds combined with CPT-11; type: cell-based; details: Homo sapiens, SW-620, 120 h; combined with CPT-11 (205 nM medium), 5 days, MTT
Procedure: Inhibitory effects of N,N-dimethyl-3-(4-(1-(tetrahydro-2H-pyran-4-yl)-[1,2,4]triazolo[4,3-a]quinoxalin-8-yl)phenoxy)propan-1-amine and its Analogues Combined with CPT-11 on the Growth of Human Colon Cancer Cell SW620 were Determined by MTT Assay
SW620 cells were digested by trypsinase, centrifuged at 800 rpm for 5 minutes, the supernatant was discarded, resuspended with fresh medium (RPMI 1640 medium+10% FBS) and counted. The cells were seeded into 96-well cell culture plate with appropriate cell density and incubated overnight in a 37° C. 5% CO2 incubator. The stock solutions of the tested compound and the reference compound AZD0156 were serially diluted to 8 concentrations by DMSO at the ratios of 1:3 and 1:10, respectively, the first concentration was 10 μM or 1 μM, and the last concentration was negative control of DMSO (0 μM, the final concentration of DMSO was 1%). 5 μL of each concentration was added to 120 μL of medium (25 times diluted) and mixed by shaking. The overnight cells were taken and the culture medium was removed, 195 μL of fresh medium containing 205 nM CPT-11 was added to each well, and 5 μL of diluted medium containing the corresponding concentration of the tested sample was added respectively, and the culture plate was then placed in the 5% CO2 cell culture incubator at 37° C. for 5 days. After removing the original solution, 100 pt of fresh serum-free DMEM medium containing MTT (0.5 mg/mL) was added to each well, the culture was continued. After 4 hours, the original solution was removed, 100 μL of DMSO was added into each well, the 96-well plates were shaken away from light for 10 minutes and placed in a multi-function reader to read the absorbance at the wavelength of 552/630/690 nm. GraphPad Prism 6.0 was used to analyze the data. The inhibitory activity of compounds on cell proliferation was plotted based on cell viability and compound concentration. The IC50 value was fitted by a sigmoidal dose response curve equation Y=100/(1+10^(Log C−Log IC50)), where C was the concentration of compound.
Table 3 summarizes the inhibitory effects of compounds combined with CPT-11 on the growth of human colon cancer cell SW620 (IC50).

Row | SMILES | pIC50 [1] | inhibition at 1 µM (ATM enzyme (human)) [%] | also measured
1 | CN(C)CCCOc1ncc(-c2ccc3ncc4nnc(C5CCOCC5)n4c3c2)cn1 [Example 6, N,N-dimethyl-3-((5-(1-(tetrahydro-2H-pyran-4-yl)-[1,2,4]triazolo[4,3-a]quinoxalin-8-yl)pyrimidin-2-yl)oxy)propan-1-amine] | < 4.00 | 57 | 
2 | CN(C)CCCOc1cnc(-c2ccc3ncc4nnc(C5CCOCC5)n4c3c2)nc1 [Example 7, N,N-dimethyl-3-((2-(1-(tetrahydro-2H-pyran-4-yl)-[1,2,4]triazolo[4,3-a]quinoxalin-8-yl)pyrimidin-5-yl)oxy)propan-1-amine] | 5.51 | 40 | 
3 | CN(C)CCOc1ccc(-c2ccc3ncc4nnc(C5CCOCC5)n4c3c2)cc1 [Example 9, N,N-dimethyl-2-(4-(1-(tetrahydro-2H-pyran-4-yl)-[1,2,4]triazolo[4,3-a]quinoxalin-8-yl)phenoxy)ethan-1-amine] | 5.71 | 72 | 
4 | CN(C)CCCNc1ccc(-c2ccc3ncc4nnc(C5CCOCC5)n4c3c2)cc1 [Example 10, N-(3-(dimethylamino)propyl)-4-(1-(tetrahydro-2H-pyran-4-yl)-[1,2,4]triazolo[4,3-a]quinoxalin-8-yl)aniline] | 5.28 | 85 | 
5 | CCNC1CCN(c2ccc(-c3ccc4ncc5nnc(N6C[C@@H](C)N(C)[C@@H](C)C6)n5c4c3)cc2F)CC1 [Example 96, N-ethyl-1-(2-fluoro-4-(1-((3S,5R)-3,4,5-trimethylpiperazin-1-yl)-[1,2,4]triazolo[4,3-a]quinoxalin-8-yl)phenyl)piperidin-4-amine] | 7.82 |  | 
6 | C[C@@H]1CN(c2nnc3cnc4ccc(-c5ccc(OCCCN(C)C)c(C(F)(F)F)c5)cc4n23)C[C@H](C)O1 [Example 102, N,N-dimethyl-3-(2-(trifluoromethyl)-4-(1-((2S,6R)-2,6-dimethylmorpholino)-[1,2,4]triazolo[4,3-a]quinoxalin-8-yl)phenoxy)propan-1-amine] | 7.68 |  | 
7 | C[C@@H]1CN(c2nnc3cnc4ccc(-c5ccc(N6CCC(N(C)C)CC6)cc5)cc4n23)C[C@H](C)O1 [Example 103, 1-(4-(1-((2S,6R)-2,6-dimethylmorpholino)-[1,2,4]triazolo[4,3-a]quinoxalin-8-yl)phenyl)-N,N-dimethylpiperidin-4-amine] | 6.75 |  | 
8 | CN(C)C1CCN(c2ccc(-c3ccc4ncc5nnc(N6CCCCC6)n5c4c3)cc2F)CC1 [Example 112, 1-(2-fluoro-4-(1-(piperidin-1-yl)-[1,2,4]triazolo[4,3-a]quinoxalin-8-yl)phenyl)-N,N-dimethylpiperidin-4-amine] | 7.66 |  | 
9 | CN(C)CCCOc1ccc(-c2ccc3ncc4nnc(C5CCOCC5)n4c3n2)cc1F [Example 139, 3-(2-fluoro-4-(9-(tetrahydro-2H-pyran-4-yl)pyrido[3,2-e][1,2,4]triazolo[4,3-a]pyrazin-2-yl)phenoxy)-N,N-dimethylpropan-1-amine] | 6.58 |  | 
10 | CN(C)CCCOc1ccc(-c2ccc3ncc4nnc(C5CCOCC5)n4c3n2)cc1Cl [Example 140, 3-(2-chloro-4-(9-(tetrahydro-2H-pyran-4-yl)pyrido[3,2-e][1,2,4]triazolo[4,3-a]pyrazin-2-yl)phenoxy)-N,N-dimethylpropan-1-amine] | 6.67 |  | 

Continued, in another order:

Row | pIC50 [1] | inhibition at 1 µM (ATM enzyme (human)) [%] | SMILES | also measured
11 | < 4.00 |  | CN(C)CCCOc1ccc(-c2cnc3ncc4nnc(C5CCOCC5)n4c3c2)cn1 [Example 1, N,N-dimethyl-3-((5-(1-(tetrahydro-2H-pyran-4-yl)pyrido[2,3-e][1,2,4]triazolo[4,3-a]pyrazin-8-yl)pyridin-2-yl)oxy)propan-1-amine] | inhibition at 10 µM (ATM enzyme (human); C 10 μm (final concentration of compound)): 90%
12 | < 4.00 | 57 | CN(C)CCCOc1ccc(-c2cnc3ncc4nnc(C5CCOCC5)n4c3c2)cc1 [Example 2, N,N-dimethyl-3-(4-(1-(tetrahydro-2H-pyran-4-yl)pyrido[2,3-e][1,2,4]triazolo[4,3-a]pyrazin-8-yl)phenoxy)propan-1-amine] | 
13 | 5.48 | 38 | CN(C)CCCOc1cnc(-c2ccc3ncc4nnc(C5CCOCC5)n4c3c2)cn1 [Example 8, N,N-dimethyl-3-((5-(1-(tetrahydro-2H-pyran-4-yl)-[1,2,4]triazolo[4,3-a]quinoxalin-8-yl)pyrazin-2-yl)oxy)propan-1-amine] | 
14 | < 4.00 | 93 | CN1CCN(c2ccc(-c3ccc4ncc5nnc(C6CCOCC6)n5c4c3)cc2)CC1 [Example 13, 8-(4-(4-methylpiperazin-1-yl)phenyl)-1-(tetrahydro-2H-pyran-4-yl)-[1,2,4]triazolo[4,3-a]quinoxaline] | inhibition at 0.01 µM (ATM enzyme (human)): 8%; inhibition at 0.1 µM (ATM enzyme (human)): 49%
15 | < 4.00 | 96 | C[C@@H]1CN(c2ccc(-c3ccc4ncc5nnc(C6CCOCC6)n5c4c3)cc2)C[C@H](C)N1C [Example 14, 1-(tetrahydro-2H-pyran-4-yl)-8-(4-((3S,5R)-3,4,5-trimethylpiperazin-1-yl)phenyl)-[1,2,4]triazolo[4,3-a]quinoxaline] | inhibition at 0.01 µM (ATM enzyme (human)): 20%; inhibition at 0.1 µM (ATM enzyme (human)): 52%
16 | 6.31 | 98 | CN(C)C1CCN(c2ccc(-c3ccc4ncc5nnc(C6CCOCC6)n5c4c3)cn2)CC1 [Example 15, N,N-dimethyl-1-(5-(1-(tetrahydro-2H-pyran-4-yl)-[1,2,4]triazolo[4,3-a]quinoxalin-8-yl)pyridin-2-yl)piperidin-4-amine] | inhibition at 0.01 µM (ATM enzyme (human)): 33%; inhibition at 0.1 µM (ATM enzyme (human)): 80%
17 | 7.24 |  | C[C@@H]1CN(c2nnc3cnc4ccc(-c5ccc(OCCCN(C)C)nc5)cc4n23)C[C@H](C)N1C [Example 26, N,N-dimethyl-3-((5-(1-((3S,5R)-3,4,5-trimethylpiperazin-1-yl)-[1,2,4]triazolo[4,3-a]quinoxalin-8-yl)pyridin-2-yl)oxy)propan-1-amine] | 
18 | 7.89 |  | CNC1CCN(c2ccc(-c3ccc4ncc5nnc(N6C[C@@H](C)N(C)[C@@H](C)C6)n5c4c3)cc2F)CC1 [Example 94, N-methyl-1-(2-fluoro-4-(1-((3S,5R)-3,4,5-trimethylpiperazin-1-yl)-[1,2,4]triazolo[4,3-a]quinoxalin-8-yl)phenyl)piperidin-4-amine] | 
19 | 7.55 |  | C[C@@H]1CN(c2nnc3cnc4ccc(-c5ccc(N6CCC(N(C)C)CC6)c(F)c5)cc4n23)C[C@H](C)O1 [Example 104, 1-(4-(1-((2S,6R)-2,6-dimethylmorpholino)-[1,2,4]triazolo[4,3-a]quinoxalin-8-yl)-2-fluorophenyl)-N,N-dimethylpiperidin-4-amine] | 
20 | 7.79 |  | CN(C)CCCOc1ccc(-c2ccc3ncc4nnc(N5CCCCC5)n4c3c2)cc1C(F)(F)F [Example 111, N,N-dimethyl-3-(4-(1-(piperidin-1-yl)-[1,2,4]triazolo[4,3-a]quinoxalin-8-yl)-2-(trifluoromethyl)phenoxy)propan-1-amine] | 
21 | 7.32 |  | CNC1CCN(c2ccc(-c3ccc4ncc5nnc(N6C[C@@H](C)N(C)[C@@H](C)C6)n5c4n3)cc2F)CC1 [Example 117, 1-(2-fluoro-4-(9-((3S,5R)-3,4,5-trimethylpiperazin-1-yl)pyrido[3,2-e][1,2,4]triazolo[4,3-a]pyrazin-2-yl)phenyl)-N-methylpiperidin-4-amine] | 
22 | 7.37 |  | CCNC1CCN(c2ccc(-c3ccc4ncc5nnc(N6C[C@@H](C)N(C)[C@@H](C)C6)n5c4n3)cc2F)CC1 [Example 119, N-ethyl-1-(2-fluoro-4-(9-((3S,5R)-3,4,5-trimethylpiperazin-1-yl)pyrido[3,2-e][1,2,4]triazolo[4,3-a]pyrazin-2-yl)phenyl)piperidin-4-amine] | 
